Experimental data as given in patent US12594276B2, “Inhibitors of human immunodeficiency virus replication” (ViiV Healthcare UK (No.5) Limited, priority 2024, dated 2026).

Experiments:
[1] = tested on: recombinant NL4-3 virus (nef section replaced with Renilla luciferase gene) in MT-2 cells; experiment: HIV cell culture assay (antiviral activity, luciferase readout); format: cell-based; conditions: Renilla, NL43, MT-2 cells infected for 4-5 days with recombinant NL4-3 Renilla luciferase virus
In short: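 Read-out: Renilla luciferase (live-cell substrate) in infected MT-2 cells after 4-5 d with serial compound dilutions. Virus from 293T transfection of the proviral clone, titered by luciferase in MT-2. EC50 via median effect equation fit.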

[2] = Compound cytotoxicity, XTT-based colorimetric assay; format: cell-based; conditions: human; uninfected MT2 cells, day 4, XTT; read-out: CC50
In short: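 Uninfected MT2 cells were treated with compound under the same protocol as the antiviral assay. Viability was read on day 4 with an XTT colorimetric assay, from which CC50 values were derived.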

SMILES | EC50 [1] | CC50 at 4 days [2]
Cc1cc(C2(F)CCC(F)(F)CC2)nc2nc([C@H](Cc3cc(F)cc(F)c3)NC(=O)Cn3nc(C4CC4)c4c3C[C@@H]3C[C@H]43)n(-c3ccc(Cl)c4c(NS(C)(=O)=O)nn([C@H](C)C(=O)N5C[C@@H](C)O[C@@H](C)C5)c34)c(=O)c12 (relative stereo) [Example 744, N-[(1S)-1-[(3P)-3-{4-chloro-1-[(2R)-1-[(2R,6S)-2,6-dimethylmorpholin-4-yl]-1-oxopropan-2-yl]-3-methanesulfonamido-1H-indazol-7-yl}-5-methyl-4-oxo-7-(1,4,4-trifluorocyclohexyl)-3H,4H-pyrido[2,3-d]pyrimidin-2-yl]-2-(3,5-difluorophenyl)ethyl]-2-[(2R*,4R*)-9-cyclopropyl-7,8-diazatricyclo[4.3.0.0^2,^4]nona-1(6),8-dien-7-yl]acetamide] | 0.017 nM | > 20 nM
COCCCn1nc(NS(C)(=O)=O)c2c(Cl)ccc(-n3c([C@H](Cc4cc(F)cc(F)c4)NC(=O)Cn4nc(C5CC5)c5c4C[C@@H]4C[C@H]54)nc4nc(C5CCC(F)(F)CC5)cc(CN5CC(F)(F)C5)c4c3=O)c21 (atropisomer, axis not shown; (P)) [Example 603, N-[(1S)-1-[(3P)-3-[4-chloro-3-methanesulfonamido-1-(3-methoxypropyl)-1H-indazol-7-yl]-5-[(3,3-difluoroazetidin-1-yl)methyl]-7-(4,4-difluorocyclohexyl)-4-oxo-3H,4H-pyrido[2,3-d]pyrimidin-2-yl]-2-(3,5-difluorophenyl)ethyl]-2-[(2S,4S)-9-cyclopropyl-7,8-diazatricyclo[4.3.0.0^2,^4]nona-1(6),8-dien-7-yl]acetamide] | 0.004 nM | > 20 nM
COCCCn1nc(NS(C)(=O)=O)c2c(Cl)ccc(-n3c([C@H](Cc4cc(F)cc(F)c4)NC(=O)Cn4nc(C(F)F)c5c4C[C@@H]4C[C@H]54)nc4nc(C5CCC(F)(F)CC5)cc(C)c4c3=O)c21 (atropisomer, axis not shown; (P)) [Example 86, N-[(1S)-1-[(3P)-3-[4-chloro-3-methanesulfonamido-1-(3-methoxypropyl)-1H-indazol-7-yl]-7-(4,4-difluorocyclohexyl)-5-methyl-4-oxo-3H,4H-pyrido[2,3-d]pyrimidin-2-yl]-2-(3,5-difluorophenyl)ethyl]-2-[(2S,4S)-9-(difluoromethyl)-7,8-diazatricyclo[4.3.0.0^2,^4]nona-1(6),8-dien-7-yl]acetamide] | 0.011 nM | > 50 nM
Cc1cc(C2CCC(F)(F)CC2)nc2nc([C@H](Cc3cc(F)cc(F)c3)NC(=O)Cn3nc(C(F)F)c4c3C(F)(F)[C@@H]3C[C@H]43)n(-c3ccc(Cl)c4c(NS(C)(=O)=O)nn(CCN5CCCCC5)c34)c(=O)c12 (atropisomer, axis not shown; (P)) [Example 269, N-[(1S)-1-[(3P)-3-{4-chloro-3-methanesulfonamido-1-[2-(piperidin-1-yl)ethyl]-1H-indazol-7-yl}-7-(4,4-difluorocyclohexyl)-5-methyl-4-oxo-3H,4H-pyrido[2,3-d]pyrimidin-2-yl]-2-(3,5-difluorophenyl)ethyl]-2-[(2S,4R)-9-(difluoromethyl)-5,5-difluoro-7,8-diazatricyclo[4.3.0.0^2,^4]nona-1(6),8-dien-7-yl]acetamide] | 0.018 nM | > 50 nM
CO[C@H](C)Cn1nc(NS(C)(=O)=O)c2c(Cl)ccc(-n3c([C@H](Cc4cc(F)cc(F)c4)NC(=O)Cn4nc(C(F)F)c5c4C(F)(F)[C@@H]4C[C@H]54)nc4nc(C5CCC(F)(F)CC5)cc(C)c4c3=O)c21 (atropisomer, axis not shown; (P)) [Example 77, N-[(1S)-1-[(3P)-3-{4-chloro-3-methanesulfonamido-1-[(2R)-2-methoxypropyl]-1H-indazol-7-yl}-7-(4,4-difluorocyclohexyl)-5-methyl-4-oxo-3H,4H-pyrido[2,3-d]pyrimidin-2-yl]-2-(3,5-difluorophenyl)ethyl]-2-[(2S,4R)-9-(difluoromethyl)-5,5-difluoro-7,8-diazatricyclo[4.3.0.0^2,^4]nona-1(6),8-dien-7-yl]acetamide] | 0.018 nM | > 50 nM
Cc1cc(C2(F)CCC(F)(F)CC2)nc2nc([C@H](Cc3cc(F)cc(F)c3)NC(=O)Cn3nc(C4CC4)c4c3C(F)(F)[C@@H]3C[C@H]43)n(-c3ccc(Cl)c4c(NS(C)(=O)=O)nn(CCN5C[C@@H](C)O[C@@H](C)C5)c34)c(=O)c12 (atropisomer, axis not shown; (P)) [Example 595, N-[(1S)-1-[(3P)-3-(4-chloro-1-{2-[(2R,6S)-2,6-dimethylmorpholin-4-yl]ethyl}-3-methanesulfonamido-1H-indazol-7-yl)-5-methyl-4-oxo-7-(1,4,4-trifluorocyclohexyl)-3H,4H-pyrido[2,3-d]pyrimidin-2-yl]-2-(3,5-difluorophenyl)ethyl]-2-[(2S,4R)-9-cyclopropyl-5,5-difluoro-7,8-diazatricyclo[4.3.0.0^2,^4]nona-1(6),8-dien-7-yl]acetamide] | 0.014 nM | > 20 nM
COCCN(CCOC)C(=O)Cn1nc(NS(C)(=O)=O)c2c(Cl)ccc(-n3c([C@H](Cc4cc(F)cc(F)c4)NC(=O)Cn4nc(C5CC5)c5c4C[C@@H]4C[C@H]54)nc4nc(C5CCC(F)(F)CC5)cc(C)c4c3=O)c21 (atropisomer, axis not shown; (P)) [Example 387, 2-[(6P)-4-chloro-7-{2-[(1S)-1-{2-[(2S,4S)-9-cyclopropyl-7,8-diazatricyclo[4.3.0.0^2,^4]nona-1(6),8-dien-7-yl]acetamido}-2-(3,5-difluorophenyl)ethyl]-7-(4,4-difluorocyclohexyl)-5-methyl-4-oxo-3H,4H-pyrido[2,3-d]pyrimidin-3-yl}-3-methanesulfonamido-1H-indazol-1-yl]-N,N-bis(2-methoxyethyl)acetamide] | 0.039 nM | > 20 nM
COCCCn1nc(NS(C)(=O)=O)c2c(Cl)ccc(-n3c([C@H](Cc4cc(F)cc(F)c4)NC(=O)Cn4nc(C(F)F)c5c4C(F)(F)[C@@H]4C[C@H]54)nc4nc(C5CCC(F)(F)CC5)cc(NCCc5ccn(C)n5)c4c3=O)c21 (atropisomer, axis not shown; (P)) [Example 543, N-[(1S)-1-[(3P)-3-[4-chloro-3-methanesulfonamido-1-(3-methoxypropyl)-1H-indazol-7-yl]-7-(4,4-difluorocyclohexyl)-5-{[2-(1-methyl-1H-pyrazol-3-yl)ethyl]amino}-4-oxo-3H,4H-pyrido[2,3-d]pyrimidin-2-yl]-2-(3,5-difluorophenyl)ethyl]-2-[(2S,4R)-9-(difluoromethyl)-5,5-difluoro-7,8-diazatricyclo[4.3.0.0^2,^4]nona-1(6),8-dien-7-yl]acetamide] | 0.014 nM | > 20 nM
Cc1cc(C2CCC(F)(F)CC2)nc2nc([C@H](Cc3cc(F)cc(F)c3)NC(=O)Cn3nc(C(F)F)c4c3C(F)(F)[C@@H]3C[C@H]43)n(-c3ccc(Cl)c4c(NS(C)(=O)=O)nn(CCN5CC6C(C5)C6(F)F)c34)c(=O)c12 (stereo partly drawn) [Example 312, N-[(1S)-1-[(3P)-3-[4-chloro-1-(2-{6,6-difluoro-3-azabicyclo[3.1.0]hexan-3-yl}ethyl)-3-methanesulfonamido-1H-indazol-7-yl]-7-(4,4-difluorocyclohexyl)-5-methyl-4-oxo-3H,4H-pyrido[2,3-d]pyrimidin-2-yl]-2-(3,5-difluorophenyl)ethyl]-2-[(2S,4R)-9-(difluoromethyl)-5,5-difluoro-7,8-diazatricyclo[4.3.0.0^2,^4]nona-1(6),8-dien-7-yl]acetamide] | 0.021 nM | > 50 nM
CS(=O)(=O)Nc1nn(CCN2C[C@@H](F)[C@@H](F)C2)c2c(-n3c([C@H](Cc4cc(F)cc(F)c4)NC(=O)Cn4nc(C(F)F)c5c4C(F)(F)[C@@H]4C[C@H]54)nc4nc(C5CCC(F)(F)CC5)cc(C(F)F)c4c3=O)ccc(Cl)c12 (atropisomer, axis not shown; (P)) [Example 259, N-[(1S)-1-[(3P)-3-(4-chloro-1-{2-[(3R,4S)-3,4-difluoropyrrolidin-1-yl]ethyl}-3-methanesulfonamido-1H-indazol-7-yl)-7-(4,4-difluorocyclohexyl)-5-(difluoromethyl)-4-oxo-3H,4H-pyrido[2,3-d]pyrimidin-2-yl]-2-(3,5-difluorophenyl)ethyl]-2-[(2S,4R)-9-(difluoromethyl)-5,5-difluoro-7,8-diazatricyclo[4.3.0.0^2,^4]nona-1(6),8-dien-7-yl]acetamide] | 0.025 nM | > 50 nM
CC1(C)CN(CCn2nc(NS(C)(=O)=O)c3c(Cl)ccc(-n4c([C@H](Cc5cc(F)cc(F)c5)NC(=O)Cn5nc(C6CC6)c6c5C[C@@H]5C[C@H]65)nc5nc(C6CCC(F)(F)CC6)cc(C(F)F)c5c4=O)c32)CC(C)(C)O1 (atropisomer, axis not shown; (P)) [Example 421, N-[(1S)-1-[(3P)-3-{4-chloro-3-methanesulfonamido-1-[2-(2,2,6,6-tetramethylmorpholin-4-yl)ethyl]-1H-indazol-7-yl}-7-(4,4-difluorocyclohexyl)-5-(difluoromethyl)-4-oxo-3H,4H-pyrido[2,3-d]pyrimidin-2-yl]-2-(3,5-difluorophenyl)ethyl]-2-[(2S,4S)-9-cyclopropyl-7,8-diazatricyclo[4.3.0.0^2,^4]nona-1(6),8-dien-7-yl]acetamide] | 0.012 nM | > 20 nM
